# Where no end group is shown, it is not given here.
# Experiments:
# [1] = tested on: MCF 12A non-cancerous breast cell line; assay: Induction of apoptosis (APO-ONE caspase 3/7) and cell viability (CellTiter Blue); type: cell-based, human; design: key to Decline in cell viability: cell viability decreased (+); or not (−)
# Procedure: (§1) MCF-10A, MCF-12A were cultured in 50% DMEM plus 50% Ham's F12 modified with 2 mM L-glutamine, 1 mM sodium pyruvate, 0.01 mg/mL bovine insulin, 500 ng/mL hydrocortisone, 50 ug/mL of penicillin and streptomycin. The combined medium was supplemented with 5% (v/v) fetal bovine serum.
# (§2) The levels of apoptotic induction and cell viability were determined by multiplexing the measurements for single samples. CellTiter Blue and APO-ONE assay systems from Promega allows the determination of cell viability correlated to cell number, and induction of apoptosis. This protocol uses a fluorgenic peptide that contains a peptide recognition-sequence for caspase 3 and caspase 7, […] proteolytic enzymes of the apoptosis cascade. The CellTiter Blue reagent was added to wells in a 96-well plate containing cells under test, immediately after addition of peptide solution or vehicle. About 5000 cells were plated into the wells the day before. At the chosen time (Day 1, Day 2 etc.) the fluorescence was measured at 590 nm (emission) after excitation at 560 nm. The caspase 3/7 activity was measured (485 nm Ex/527 nm Em) in the same wells after adding 120 uL of the Apo-ONE reagent, freeze fracturing at −80° C. for 1 hr, and incubating for 1 hr at room temperature.
# (§3) For this work, the concentrations of SorC13 and SorC27 used were 0 uM, 1 uM, 10 uM and 100 uM. The experiments extended over a 5 to 7 day period. All measurements were done in quadruplicate with both a blank (no cells) and control (vehicle, no peptide) used to correct the test measurements. The time-response data, and the dose-response data were plotted as means±standard error of the mean. Any statistical comparisons were done with the Student's t-test or by ANOVA analysis over the dose course. The level of statistical significance was considered to be the 95% confidence interval (i.e., p≤0.05).
# [2] = tested on: MCF 10A non-cancerous breast cell line; assay: as above; type: cell-based, human; design: key to Decline in cell viability: cell viability decreased (+); or not (−)
# Procedure: as §1, §2, §3
# [3] = tested on: MDA-MB-468 (MB 468) breast cancer cell line; assay: as above; type: cell-based, human
# Procedure: MCF-7, MDA-MB-231, MDA-MB-415, MDA-MB-468 were grown in DMEM modified with 10% (v/v) fetal bovine serum, 2 mM L-glutamine and 50 ug/mL each of penicillin and streptomycin.
# as §2, §3
# Daudi = assay: Apoptosis and cell viability in Burkitt's lymphoma cell line (Example 11); type: cell-based, human; settings: 0, 10 and 100 uM, 5 to 7 days
# Procedure: (§4) For this work, the concentrations of SorC13 and SorC27 used are 0 uM, 10 uM and 100 uM. The experiments extend over a 5 to 7 day period. All measurements are done in quadruplicate with both a blank (no cells) and control (vehicle, no peptide) used to correct the test measurements. The time-response data, and the dose-response data are plotted as means±standard error of the mean.
# The cell line Daudi (from ATCC CCL-213) is grown under the recommended conditions and in culture media recommended by ATCC. The cell lines were cultured under sterile conditions at 37° C., in a humidified 5% CO2 atmosphere.
# (§5) Induction of apoptosis and attendant decrease is observed in cell viability in the cancer cell lines. From the large increases in the activities of the caspase3/7 activity, it is clear that there is a time dependent effect and a dose dependent effect on the induction of apoptosis.
# mealworm larvae = assay: Mealworm larva paralytic bioassay; type: in vivo; settings: for larvae paralyzed: 20 nmole/100 mg mass; for paralysis in the mealworm larva model: molar equivalent doses (20 nanomole/100 mg larva)
# Text: To show this, the mealworm larva paralytic bioassay reported previously (U.S. Pat. No. 7,119,168) was used. Animals from a mealworm colony were arbitrarily selected and placed in groups (treatment and control). The animals were weighed to allow calculation of equivalent doses. The treatment was with either SorC13 or SorC27 dissolved in buffered insect Ringer's solution. The control was injection was an equivalent volume of insect Ringer's (NaCl; 10.40 g; KCl, 0.32 g; CaCl2, 0.48 g; NaHCO3, 0.32 g dissolved in 1 L of Millipore sterile water, pH 7.4). Peptide formulations were: SorC27 solutions, prepared at 1.0 mg/100 uL insect Ringer's (10 ug/uL, […], MW=2957); and SorC13, prepared at 0.5 mg/100 uL (5 ug/uL, […], MW=1566). The doses were 50 ug SorC27 per 100 mg of animal mass and 25 ug SorC13 per 100 mg of animal mass. Peptide solutions and control saline were injected dorsally at the fourth segment from the head, just under the integumen. Animals were gently ‘tail tweaked’ with forceps to trigger the escape reflex reaction and scored on time-to-effect, duration of effect and intensity of effect.
# MV-4-11 = assay: Apoptosis and cell viability in AML cell line (Example 13); type: cell-based, human; settings: 0, 10 and 100 uM, 5 to 7 days
# Procedure: as §4
# The cell line MV-4-11 (from ATCC […]) is grown under the recommended conditions and in culture media recommended by ATCC. The cell lines were cultured under sterile conditions at 37° C., in a humidified 5% CO2 atmosphere.
# as §5
# PC3 and LnCaP clone FGC = assay: Apoptosis and cell viability in prostate cancer cell lines (Example 10); type: cell-based, human; settings: 0, 10 and 100 uM, 5 to 7 days
# Procedure: as §4
# The cell lines PC3 (from ATCC CRL-1435) and LnCaP clone FGC (from ATCC CRL-1740), obtained from the American Type Culture Collection (ATCC) and grown under the recommended conditions and in culture media recommended by ATCC. The cell lines are cultured under sterile conditions at 37° C., in a humidified 5% CO2 atmosphere.
# as §5
Sequence,Apoptosis Index (1 = no effect) ([1]; SorC13 100 uM),Decline in cell viability ([1]; SorC13 100 uM),Apoptosis Index (1 = no effect) ([2]; SorC13 100 uM),Decline in cell viability ([2]; SorC13 100 uM),Apoptosis Index (1 = no effect) ([3]; SorC13 1 uM),Apoptosis Index (1 = no effect) ([3]; SorC13 10 uM),Apoptosis Index (1 = no effect) ([3]; SorC13 100 uM),induction of apoptosis and cell viability (Daudi),larvae paralyzed (mealworm larvae; time 0 min),larvae paralyzed (mealworm larvae; time 2 min),larvae paralyzed (mealworm larvae; time 30 min),paralysis in the mealworm larva model (mealworm larvae),induction of apoptosis and cell viability (MV-4-11),induction of apoptosis and cell viability (PC3 and LnCaP clone FGC),Apoptosis Index (1 = no effect) ([1]; SorC27 100 μM),Decline in cell viability ([1]; SorC27 100 μM),Apoptosis Index (1 = no effect) ([2]; SorC27 100 μM),Decline in cell viability ([2]; SorC27 100 μM),"Apoptosis Index (1 = no effect) ([3]; Day 3, SorC27 10 μM)","Apoptosis Index (1 = no effect) ([3]; Day 3, SorC27 100 μM)"
"KEFLHPSKVDLPR [SorC13, KEFLHPSKVDLPR]",1.0,−,1.0,−,2.7,3.3,2.7,induces apoptosis and decreases cell viability,0/4,0/4,0/4,no evidence of paralysis,induces apoptosis and decreases cell viability,induces apoptosis and decreases cell viability,,,,,,
EGKLSSNDTEGGLCKEFLHPSKVDLPR [SorC27],,,,,,,,induces apoptosis and decreases cell viability,0/4,0/4,0/4,no evidence of paralysis,induces apoptosis and decreases cell viability,induces apoptosis and decreases cell viability,1.0,−,1.0,−,1.1,1.2

# Source: patent publication US10058587B2, “Peptide composition for cancer treatment by inhibiting TRPV6 calcium channel activity” (priority 2008, dated 2018)
